Reference: article PMC4457651 (Biochimica et biophysica acta, 2015)

What was measured:
[1] = molecular target: yCcP (heme and Trp-191 cavity) (Saccharomyces cerevisiae, UniProt P00431); assay: Kinetics of ligand binding to yCcP; parameters: species or system S. cervisiae; conditions: for KA2: Trp-191 cavity of yCcP; for KA2 / k4: fit to Eq. 5; for k4: Trp-191 cavity of yCcP/MIM complex
[2] = molecular target: T1, yeast cytochrome c peroxidase (yCcP) (Saccharomyces cerevisiae, UniProt P00431); assay: Equilibrium binding to heme of yCcP by spectrophotometric titration; parameters: species or system S. cervisiae; conditions: for KAapp: calculated from best-fit line
T1 sequence (P00431 68-361): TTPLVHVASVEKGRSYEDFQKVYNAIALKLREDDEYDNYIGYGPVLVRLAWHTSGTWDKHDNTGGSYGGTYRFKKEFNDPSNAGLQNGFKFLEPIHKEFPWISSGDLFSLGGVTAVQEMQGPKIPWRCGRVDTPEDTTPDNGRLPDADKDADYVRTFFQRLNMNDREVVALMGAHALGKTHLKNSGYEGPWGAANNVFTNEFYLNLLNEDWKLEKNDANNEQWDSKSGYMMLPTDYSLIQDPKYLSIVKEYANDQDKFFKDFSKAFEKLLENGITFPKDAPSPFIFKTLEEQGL

[3] = molecular target: horse metMb; conditions: read-out: KDapp, metMb; pH 7; cited from earlier work
[4] = molecular target: rCcP (heme and Trp-191 cavity) (Saccharomyces cerevisiae, UniProt P00431); assay: Kinetics of ligand binding to rCcP; parameters: species or system baker's yeast; conditions: for Time for initial binding phase to be complete: first kinetic phase, manual mixing
[5] = molecular target: recombinant cytochrome c peroxidase (rCcP) (Saccharomyces cerevisiae, UniProt P00431); assay: Equilibrium binding to heme of rCcP by spectrophotometric titration; parameters: species or system baker's yeast
[6] = molecular target: Rhodobacter sphaeroides cytochrome c1; conditions: read-out: KD, Rhodobacter sphaeroides cytochrome c1 imidazole complex; cited from earlier work
[7] = tested on: horseradish peroxidase (HRP); conditions: pH 9.3; cited from earlier work
[8] = molecular target: CcP(H52L) (Saccharomyces cerevisiae, UniProt P00431, H119L); assay: Equilibrium binding to CcP; parameters: species or system baker's yeast
[9] = molecular target: R. capsulatus cytochrome c2(M96N); conditions: read-out: KD, R. capsulatus cytochrome c2(M96N) imidazole complex; cited from earlier work
[10] = ionization of free imidazole; cited from earlier work
[11] = molecular target: CcP(W191G); conditions: read-out: Apparent KD, CcP(W191G)/imidazole complex; cited from earlier work
[12] = tested on: sperm whale metMb; conditions: cited from earlier work
[13] = molecular target: nitric oxide synthase; conditions: read-out: KD, nitric oxide synthase imidazole complex; cited from earlier work
[14] = molecular target: Chironomus plumosus metHb; conditions: read-out: KD, Chironomus plumosus metHb imidazole complex; cited from earlier work
[15] = tested on: cytochrome P450CAM; conditions: read-out: KD, cytochrome P450CAM imidazole complex; cited from earlier work
[16] = molecular target: horse cytochrome c; conditions: read-out: KD, horse cytochrome c imidazole complex; cited from earlier work
[17] = neutral pH; cited from earlier work
[18] = pH 7.0, biphasic imidazole titration
[19] = 8.76 μM rCcP, 3.15 M imidazole, pH 7.0

CcP(H52L), sequence (P00431 68-361 H119L): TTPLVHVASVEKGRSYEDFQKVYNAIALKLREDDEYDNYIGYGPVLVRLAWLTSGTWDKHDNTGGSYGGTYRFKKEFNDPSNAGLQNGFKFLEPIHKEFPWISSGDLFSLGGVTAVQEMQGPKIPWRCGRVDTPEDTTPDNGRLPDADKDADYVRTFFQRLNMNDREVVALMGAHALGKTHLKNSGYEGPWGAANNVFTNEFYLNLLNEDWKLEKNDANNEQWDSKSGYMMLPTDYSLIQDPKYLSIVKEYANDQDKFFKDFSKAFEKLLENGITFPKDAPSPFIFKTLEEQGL

Cn1ccnc1 [1-Methylimidazole, 1-methylimidazole]
Kd [1]: 5 ± 2 mM
KA2 ([1]; pH 4.1): (2.94 ± 0.28) × 10^2 M^−1
KA2 ([1]; pH 4.5): (9.19 ± 0.52) × 10^1 M^−1
KA2 ([1]; pH 5.0): (1.74 ± 0.17) × 10^2 M^−1
KA2 ([1]; pH 5.5): (1.73 ± 0.35) × 10^2 M^−1
KA2 ([1]; pH 6.0): (2.64 ± 0.18) × 10^2 M^−1
KA2 ([1]; pH 6.5): (2.13 ± 0.27) × 10^2 M^−1
KA2 ([1]; pH 7.0): (2.13 ± 0.81) × 10^3 M^−1
KA2 ([1]; pH 7.5): (4.52 ± 5.10) × 10^3 M^−1
k4 ([1]; pH 4.1): (1.55 ± 0.08) × 10^−1 M^−1 s^−1
k4 ([1]; pH 4.5): (2.49 ± 0.16) × 10^−2 M^−1 s^−1
k4 ([1]; pH 5.0): (2.72 ± 0.35) × 10^−2 M^−1 s^−1
k4 ([1]; pH 5.5): (1.14 ± 0.03) × 10^−2 M^−1 s^−1
k4 ([1]; pH 6.0): (1.60 ± 0.03) × 10^−2 M^−1 s^−1
k4 ([1]; pH 6.5): (1.26 ± 0.03) × 10^−2 M^−1 s^−1
k4 ([1]; pH 7.0): (9.21 ± 3.17) × 10^−3 M^−1 s^−1
k4 ([1]; pH 7.5): (5.48 ± 1.2) × 10^0 M^−1 s^−1
k4, average ([1]; binding into Trp-191 cavity of heme-ligated yCcP, average pH 4.1 to 6.5): (4.1 ± 0.6) × 10^−2 M^−1s^−1
KA2, average ([1]; binding into Trp-191 cavity, yCcP, average pH 4.1 to 6.5): 200 ± 70 M⁻¹
Apparent pKa of ionizable group affecting MIM binding affinity ([2]; Saccharomyces cerevisiae (yeast), pH 4): 5.2 ± 0.3
Increase in binding affinity on decreasing pH from 7.5 to 4.0 ([2]; yCcP): 4 fold
KAapp ([2]; yCcP, pH 4.1): 4.72 M⁻¹
KAapp ([2]; yCcP, pH 4.5): 4.37 M⁻¹
KAapp ([2]; yCcP, pH 5.0): 3.53 M⁻¹
KAapp ([2]; yCcP, pH 5.5): 2.48 M⁻¹
KAapp ([2]; yCcP, pH 6.0): 1.74 M⁻¹
KAapp ([2]; yCcP, pH 6.5): 1.40 M⁻¹
KAapp ([2]; yCcP, pH 7.0): 1.30 M⁻¹
KAapp ([2]; yCcP, pH 7.5): 1.24 M⁻¹
Kd [3]: 87 mM
kfobs faster than kfobs for the imidazole/CcP reaction [4]: about 10 times
ksobs, observed rate constant of slow absorbance change ([4]; 9.07 μM rCcP, 0.992 M MIM, pH 7.0): (1.13 ± 0.06) × 10^−4 s^−1
kfobs, lower limit for initial binding ([4]; assuming 97% of reaction complete within 10 s mixing): ≥ 0.35 s⁻¹
Time for initial binding phase to be complete [4]: ≤ 10 s
Time for initial binding phase to be complete ([4]; listed as MIM): less than 10 s
KA1 as fraction of KAapp ([4]; pH 7): about 4%

c1c[nH]cn1 [Imidazole, imidazole]
KDapp of rCcP complex larger than for yCcP complex ([5]; pH 7.0): about 40%
Kd [6]: 0.033 mM
Formation of HRP/imidazole complex [7]: Only partial formation
High-affinity phase of CcP(H52L): greater affinity than yCcP [8]: 25 fold
Low-affinity phase of CcP(H52L) weaker than binding by yCcP [8]: about 3 times
Fraction of high-affinity phase, CcP(H52L) [8, 18]: < 46%
Fraction of low-affinity phase, CcP(H52L) [8, 18]: > 54%
Kd [9]: 0.0018 mM
pKA of free imidazole [10]: 14.4
Kd [11]: 0.7 mM
Rate constant of binding to sperm whale metMb [12]: 360 M⁻¹ s⁻¹
Kd ([12]; read-out: KD, sperm whale metmyoglobin imidazole complex): 26 mM
Kd [13]: 0.063 mM
Kd [14]: 0.029 mM
Kd [15]: 0.4 mM
Kd [16]: 34 mM
Fraction of yCcP bound to ligand at highest ligand concentration ([2]; imidazole up to 4.90 M, pH 7.0): about 60%
Binding to CcP weaker than binding to metmyoglobin ([2]; pH 7): about 120 times
Kd [3]: 28 mM
kfobs, observed rate constant of fast phase [4, 19]: (2.13 ± 0.08) × 10^−2 s^−1
ksobs, observed rate constant of slow phase [4, 19]: (2.91 ± 0.01) × 10^−4 s^−1

c1c[nH]cn1 [imidazolium ion]
Rate constant of binding to sperm whale metMb [12]: 127 M⁻¹ s⁻¹

O=[N+]([O-])c1c[nH]cn1 [4-Nitroimidazole, 4-nitroimidazole]
Kd [5]: ~100 mM
Fraction of rCcP bound to ligand at highest ligand concentration ([5]; ~5 mM 4NI, pH 7.0, estimate): ~ 5%
Kd [8]: ~30 mM
Fraction of CcP(H52L)/4NI complex formed ([8]; 4.80 mM 4NI, pH 7.0, estimate): about 14%
Affinity of CcP(H52L) higher than CcP ([8]; estimated): 7 fold
Concentration of saturated solution in aqueous buffer [17]: less than 6 mM
Fraction of yCcP bound to ligand at highest ligand concentration ([2]; ~5 mM 4NI, pH 7.0, estimate): about 2%
Kd [3]: 2.5 mM
